Experimental data: patent US11155547B1, “Compounds for and methods of treating diseases” (Alterity Therapeutics Limited, priority 2020, dated 2021)

What follows are compounds tested on human neuroblastoma line BE(2)-M17 (M17) cells (assay: Measurement of Fe efflux from cells (57Fe in media by ICP-MS)). Conditions: Homo sapiens; M17 cells pre-loaded with 57Fe; compound 20 μM, 2 h; Fe in media as percentage increase relative to cell media in the absence of the compound; read-out: % Fe Efflux Range.
Type: cell-based
Method: Compounds of the current invention were assessed for their ability to efflux iron (Fe) from a cell using the following protocol. The human neuroblastoma line BE(2)-M17 (M17) cell cultures were acquired from Sigma Aldrich (Catalogue #: 95011816). M17 cells were maintained in Opti-MEM reduced serum media supplemented with 10% fetal bovine serum (Bovogen, SFBSF) and passaged twice weekly. Cells were cultured at 37° C. in the presence of 5% CO2. Culture supplies were sourced from Thermo Fisher unless otherwise stated. A solution of ^57Fe isotope was prepared by dissolving ^57Fe metal (>95% enrichment, Trace Sciences International) in concentrated HCl to give a final concentration of 573 mM. From this master solution, a 10 mM working solution was prepared in sterile water. The working solution was used within two months of preparation. M17 cells were loaded with iron initially by seeding into 48-well plates at a density of 0.15×10^6 cells per well in 0.5 mL media. After 48 h, old media was discarded. Fresh media was added supplemented from the 10 mM ^57Fe working solution to yield media containing 20 μM ^57Fe isotope. Cells received 0.2 mL of this ^57Fe enriched media and were returned to the incubator for 20 h. The ability of experimental compounds to efflux iron was determined by the dissolution of compounds in DMSO and diluted in Hanks' Balanced Salt Solution (HBSS) for treatment of M17 cells. After ^57Fe incubation, cells were rinsed twice with HBSS and treated with 0.15 ml trial compound for 2 h. Experimental substances were routinely screened at a concentration of 20 μM, however dilutions ranging from 1-40 μM were occasionally applied to further elucidate the properties of key compounds. All assays included a relevant vehicle (0.4%-0.8% DMSO) as well as a positive control. Following the treatment period, 0.1 mL of media was collected from cells and the extracellular ^57Fe content was analysed via inductively coupled mass spectrometry (ICP-MS, Agilent 7700×series instrument). […] After 2 h the Fe levels in the media were measured and the increase determined as a percentage increase relative to the cell media in the absence of the compound. [formula] Representative data is provided in Table 1 where the % Fe efflux for the specified compounds of the invention lie in the following ranges: A<30%, B 30-100%, C 100-150%; D>150%

SMILES | activation at 20 µM
Oc1ccncc1-c1nc(-c2cccc(F)c2O)n2c1CCCC2 [Compound 30, 3-(3-(3-Fluoro-2-hydroxyphenyl)-5,6,7,8-tetrahydroimidazo[1,5-a]pyridin-1-yl)pyridin-4-ol] | > 150%
Cc1ccc(O)c(-c2nc(-c3cccc(C)c3O)n3c2CCCC3)n1 [Compound 6, 2-(3-(2-Hydroxy-3-methylphenyl)-5,6,7,8-tetrahydroimidazo[1,5-a]pyridin-1-yl)-6-methylpyridin-3-ol] | 100 to 150%
Cc1ccc(O)c(-c2nc(-c3cccc(F)c3O)n3c2CCC3)n1 [Compound 59, 2-(3-(3-Fluoro-2-hydroxyphenyl)-6,7-dihydro-5H-pyrrolo[1,2-c]imidazol-1-yl)-6-methylpyridin-3-ol] | > 150%
Oc1ccccc1-c1nc(-c2ccccn2)n2c1CCCC2 [Compound 11, 2-(3-(Pyridin-2-yl)-5,6,7,8-tetrahydroimidazo[1,5-a]pyridin-1-yl)phenol] | < 30%
Cc1ccc(O)c(-c2nc(-c3ccccc3O)c3n2CC(C)CC3)c1 (stereo not drawn) [Compound 37, 2-(1-(2-Hydroxyphenyl)-6-methyl-5,6,7,8-tetrahydroimidazo[1,5-a]pyridin-3-yl)-4-methylphenol] | < 30%
Oc1ccccc1-c1nc(-c2cccc(CN3CCOCC3)c2O)n2c1CCCC2 [Compound 12, 2-(1-(2-Hydroxyphenyl)-5,6,7,8-tetrahydroimidazo[1,5-a]pyridin-3-yl)-6-(morpholinomethyl)phenol] | < 30%
Oc1ccccc1-c1nc(-c2c(O)cccc2F)n2c1CCCC2 [Compound 9, 3-Fluoro-2-(1-(2-hydroxyphenyl)-5,6,7,8-tetrahydroimidazo[1,5-a]pyridin-3-yl)phenol] | < 30%
Oc1ccccc1-c1nc(-c2cccnc2O)c2n1CCCC2 [Compound 15, 3-(3-(2-hydroxyphenyl)-5,6,7,8-tetrahydroimidazo[1,5-a]pyridin-1-yl)pyridin-2-ol] | 100 to 150%
Cc1ccc(O)c(-c2nc(-c3ccccc3O)n3c2CCC3)n1 [Compound 50, 2-(3-(2-Hydroxyphenyl)-6,7-dihydro-5H-pyrrolo[1,2-c]imidazol-1-yl)-6-methylpyridin-3-ol] | > 150%
Oc1ccncc1-c1nc(-c2ccccc2O)n2c1CCCC2 [Compound 29, 3-(3-(2-Hydroxyphenyl)-5,6,7,8-tetrahydroimidazo[1,5-a]pyridin-1-yl)pyridin-4-ol] | 100 to 150%
Oc1ncccc1-c1nc(-c2cccc(Cl)c2O)n2c1CCCC2 [Compound 14, 3-(3-(3-Chloro-2-hydroxyphenyl)-5,6,7,8-tetrahydroimidazo[1,5-a]pyridin-1-yl)pyridin-2-ol] | 100 to 150%
Cc1ccc(O)c(-c2nc(-c3ccccc3O)n3c2CCCC3)n1 [Compound 1, 2-(3-(2-Hydroxyphenyl)-5,6,7,8-tetrahydroimidazo[1,5-a]pyridin-1-yl)-6-methylpyridin-3-ol] | > 150%
Oc1ccccc1-c1nc(-c2ccccc2O)n2c1CCC(C(F)(F)F)C2 (stereo not drawn) [Compound 36, 2,2′-(6-(Trifluoromethyl)-5,6,7,8-tetrahydroimidazo[1,5-a]pyridine-1,3-diyl)diphenol] | < 30%
Cc1ccc(O)c(-c2nc(-c3nc(C)ccc3O)c3n2CCCC3)c1 [Compound 5, 2-(3-(2-Hydroxy-5-methylphenyl)-5,6,7,8-tetrahydroimidazo[1,5-a]pyridin-1-yl)-6-methylpyridin-3-ol] | > 150%
Cc1ccc(O)c(-c2nc(-c3ccccc3O)c3n2CCCC3)c1 [Compound 8, 2-(1-(2-Hydroxyphenyl)-5,6,7,8-tetrahydroimidazo[1,5-a]pyridin-3-yl)-4-methylphenol] | < 30%
Cc1ccc(O)c(-c2nc(-c3cc(F)ccc3O)n3c2CCCC3)n1 [Compound 3, 2-(3-(5-Fluoro-2-hydroxyphenyl)-5,6,7,8-tetrahydroimidazo[1,5-a]pyridin-1-yl)-6-methylpyridin-3-ol] | 100 to 150%
Cc1ccc(O)c(-c2nc(-c3cccnc3O)c3n2CCCC3)c1 [Compound 13, 3-(3-(2-Hydroxy-5-methylphenyl)-5,6,7,8-tetrahydroimidazo[1,5-a]pyridine-1-yl)pyridine-2-ol] | 100 to 150%
Cc1ccc(O)c(-c2nc(-c3cccc(F)c3O)n3c2CCCC3)n1 [Compound 2, 2-(3-(3-Fluoro-2-hydroxyphenyl)-5,6,7,8-tetrahydroimidazo[1,5-a]pyridin-1-yl)-6-methylpyridin-3-ol] | > 150%
COC(=O)c1ccc(O)c(-c2nc(-c3ccccc3O)c3n2CCCC3)c1 [Compound 10, Methyl 4-hydroxy-3-(1-(2-hydroxyphenyl)-5,6,7,8-tetrahydroimidazo[1,5-a]pyridin-3-yl)benzoate] | 30 to 100%
Oc1ccccc1-c1nc(-c2ccccc2O)n2c1CCCC2 [Compound 7, 2,2′-(5,6,7,8-tetraHydroimidazo[1,5-a]pyridine-1,3-diyl)diphenol] | < 30%
CCN(CC)CCc1cccc(-c2nc(-c3ccncc3O)c3n2CCCC3)c1O [Compound 22, 4-(3-(3-(2-(Diethylamino)ethyl)-2-hydroxyphenyl)-5,6,7,8-tetrahydroimidazo[1,5-a]pyridin-1-yl)pyridin-3-ol] | 100 to 150%
Cc1ccc(O)c(-c2nc(-c3ccccc3O)c3n2CC(C(F)(F)F)CC3)c1 (stereo not drawn) [Compound 38, 2-(1-(2-Hydroxyphenyl)-6-(trifluoromethyl)-5,6,7,8-tetrahydroimidazo[1,5-a]pyridin-3-yl)-4-methylphenol] | < 30%
Cc1ccc(O)c(-c2nc(-c3c(O)cccc3F)n3c2CCCC3)n1 [Compound 4, 2-(3-(2-Fluoro-6-hydroxyphenyl)-5,6,7,8-tetrahydroimidazo[1,5-a]pyridin-1-yl)-6-methylpyridin-3-ol] | 30 to 100%

Same assay, conditions: M17 cells pre-loaded with 57Fe; compound 20 μM, 2 h; Fe in media as percentage increase relative to cell media in the absence of the compound

SMILES | % Fe Efflux Range
Oc1cnccc1-c1nc(-c2ccccc2O)n2c1CCCC2 [Compound 21, 4-(3-(2-Hydroxyphenyl)-5,6,7,8-tetrahydroimidazo[1,5-a]pyridin-1-yl)pyridin-3-ol] | D (D>150%)
